Results: the supplement of paper PMC10307832

Columns and labels:
Experiment in all cases: relative viability (nuclei count vs DMSO), 5 days (fraction); higher = more cells survive
Dinaciclib = compound: CCc1cnn2c(NCc3ccc[n+]([O-])c3)cc(N3CCCC[C@H]3CCO)nc12 [Dinaciclib]
In short: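 Nuclei counted with MetaXpress define viability as the ratio of treated to vehicle wells, given as a median across plates. The lung cancer cell lines were in 1536-well plates, pinned with five √10-spaced library-drug doses and imaged at 4× after 5 days and Hoechst staining. Plates passed with control CV below 25% and at least one doubling.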

Dinaciclib + Crizotinib = compound: CCc1cnn2c(NCc3ccc[n+]([O-])c3)cc(N3CCCC[C@H]3CCO)nc12 [Dinaciclib] + C[C@@H](Oc1cc(-c2cnn(C3CCNCC3)c2)cnc1N)c1c(Cl)ccc(F)c1Cl [Crizotinib] (partner 1 µM)
In short: (§1)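 Nuclei were stained with Hoechst during a one-step fixation (final 0.05% Triton X-100, 1% formaldehyde, 1 ug/ml Hoechst) carried out 5 days after dosing, then counted on 4× images. The cells, lung cancer lines in 1536-well plates, had been dosed by pin tool the day after seeding with one drug alone or a fixed anchor-drug dose plus five library-drug doses (not always all listed) in √10 steps. Relative viability is the nuclei count in treated wells divided by that in vehicle wells, and each value is the median of duplicate plates.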

Dinaciclib + Alpelisib = compound: CCc1cnn2c(NCc3ccc[n+]([O-])c3)cc(N3CCCC[C@H]3CCO)nc12 [Dinaciclib] + Cc1nc(NC(=O)N2CCC[C@H]2C(N)=O)sc1-c1ccnc(C(C)(C)C(F)(F)F)c1 [Alpelisib] (partner 2 µM)
In short: as §1

Dinaciclib + Dasatinib = compound: CCc1cnn2c(NCc3ccc[n+]([O-])c3)cc(N3CCCC[C@H]3CCO)nc12 [Dinaciclib] + Cc1nc(Nc2ncc(C(=O)Nc3c(C)cccc3Cl)s2)cc(N2CCN(CCO)CC2)n1 [Dasatinib] (partner 0.075 µM)
In short: as §1

Dinaciclib + Olaparib = compound: CCc1cnn2c(NCc3ccc[n+]([O-])c3)cc(N3CCCC[C@H]3CCO)nc12 [Dinaciclib] + O=C(c1cc(Cc2n[nH]c(=O)c3ccccc23)ccc1F)N1CCN(C(=O)C2CC2)CC1 [Olaparib] (partner 8 µM)
In short: as §1

| Cell Line | relative viability (Dinaciclib; 0.009487 µM) | relative viability (Dinaciclib; 0.03 µM) | relative viability (Dinaciclib; 0.09487 µM) | relative viability (Dinaciclib; 0.3 µM) | relative viability (Dinaciclib + Crizotinib; first compound 0.009487 µM) | relative viability (Dinaciclib + Crizotinib; first compound 0.03 µM) | relative viability (Dinaciclib + Crizotinib; first compound 0.09487 µM) | relative viability (Dinaciclib + Crizotinib; first compound 0.3 µM) | relative viability (Dinaciclib + Alpelisib; first compound 0.009487 µM) | relative viability (Dinaciclib + Alpelisib; first compound 0.03 µM) | relative viability (Dinaciclib + Alpelisib; first compound 0.09487 µM) | relative viability (Dinaciclib + Alpelisib; first compound 0.3 µM) | relative viability (Dinaciclib + Dasatinib; first compound 0.009487 µM) | relative viability (Dinaciclib + Dasatinib; first compound 0.03 µM) | relative viability (Dinaciclib + Dasatinib; first compound 0.09487 µM) | relative viability (Dinaciclib + Dasatinib; first compound 0.3 µM) | relative viability (Dinaciclib + Olaparib; first compound 0.009487 µM) | relative viability (Dinaciclib + Olaparib; first compound 0.03 µM) | relative viability (Dinaciclib + Olaparib; first compound 0.09487 µM) | relative viability (Dinaciclib + Olaparib; first compound 0.3 µM) |
| --- | --- | --- | --- | --- | --- | --- | --- | --- | --- | --- | --- | --- | --- | --- | --- | --- | --- | --- | --- | --- |
| 201T | 1.09 | 0.632 | 0.339 | 0.236 | 0.938 | 0.739 | 0.265 | 0.313 | 1.11 | 0.829 | 0.288 | 0.284 | 0.621 | 0.428 | 0.265 | 0.245 | 0.991 | 0.34 | 0.225 | 0.223 |
| A549 | 0.968 | 0.32 | 0.0405 | 0.046 | 0.724 | 0.365 | 0.0408 | 0.05 | 0.686 | 0.0411 | 0.0487 | 0.0518 |  |  |  |  | 0.276 | 0.0567 | 0.0423 | 0.0382 |
| A-427 | 0.828 | 0.144 | 0.084 | 0.0857 | 0.72 | 0.12 | 0.057 | 0.0481 | 1.11 | 0.138 | 0.0763 | 0.067 | 0.486 | 0.111 | 0.0662 | 0.0725 | 0.459 | 0.104 | 0.0978 | 0.101 |
| ABC-1 | 0.757 | 0.237 | 0.165 | 0.116 | 1.16 | 0.178 | 0.11 | 0.0832 | 0.726 | 0.342 | 0.194 | 0.172 | 0.466 | 0.133 | 0.137 | 0.0934 | 0.807 | 0.316 | 0.272 | 0.252 |
| BEN | 1.06 | 0.812 | 0.214 | 0.257 | 1 | 0.512 | 0.18 | 0.215 | 1.24 | 0.517 | 0.207 | 0.236 | 0.362 | 0.435 | 0.157 | 0.153 | 0.956 | 0.457 | 0.258 | 0.26 |
| CAL-12T | 0.479 | 0.163 | 0.121 | 0.137 | 0.503 | 0.0856 | 0.0861 | 0.103 | 0.443 | 0.128 | 0.0835 | 0.115 | 0.11 | 0.0662 | 0.082 | 0.0795 | 0.589 | 0.134 | 0.13 | 0.141 |
| COR-L23 | 0.891 | 0.162 | 0.0991 | 0.103 | 0.456 | 0.0842 | 0.0684 | 0.0575 | 0.637 | 0.0835 | 0.0694 | 0.0603 | 0.349 | 0.0817 | 0.0588 | 0.0557 | 0.356 | 0.112 | 0.0765 | 0.0765 |
| COR-L 105 | 0.599 | 0.285 | 0.264 | 0.29 | 0.923 | 0.192 | 0.171 | 0.189 | 0.575 | 0.35 | 0.234 | 0.187 | 0.25 | 0.201 | 0.191 | 0.187 | 0.957 | 0.391 | 0.312 | 0.269 |
| ChaGo-K-1 | 0.95 | 0.246 | 0.203 | 0.146 | 0.699 | 0.229 | 0.224 | 0.214 |  |  |  |  | 0.529 | 0.154 | 0.116 | 0.127 | 0.371 | 0.145 | 0.0867 | 0.0975 |
| EKVX | 0.996 | 0.601 | 0.184 | 0.13 | 0.749 | 0.454 | 0.103 | 0.118 | 0.862 | 0.449 | 0.11 | 0.122 | 0.548 | 0.415 | 0.159 | 0.223 | 0.721 | 0.346 | 0.123 | 0.139 |
| EMC-BAC-2 | 0.951 | 0.413 | 0.224 | 0.197 | 0.71 | 0.187 | 0.146 | 0.15 | 0.765 | 0.227 | 0.113 | 0.112 | 0.312 | 0.117 | 0.13 | 0.109 | 0.485 | 0.238 | 0.187 | 0.176 |
| EPLC-272H | 0.855 | 0.0817 | 0.0396 | 0.0347 | 0.853 | 0.484 | 0.0554 | 0.0387 | 0.828 | 0.542 | 0.0754 | 0.0887 | 0.381 | 0.089 | 0.0366 | 0.0325 | 0.274 | 0.0455 | 0.0344 | 0.036 |
| H3255 | 0.928 | 0.56 | 0.219 | 0.196 | 0.842 | 0.194 | 0.173 | 0.197 | 0.716 | 0.352 | 0.15 | 0.141 | 0.289 | 0.313 | 0.271 | 0.195 | 0.536 | 0.253 | 0.2 | 0.19 |
| HARA | 0.912 | 0.18 | 0.088 | 0.0759 | 0.717 | 0.103 | 0.0536 | 0.0685 | 0.72 | 0.0726 | 0.0663 | 0.0442 | 0.254 | 0.22 | 0.0491 | 0.0506 | 0.366 | 0.0835 | 0.0659 | 0.14 |
| HCC-15 | 0.772 | 0.154 | 0.114 | 0.114 | 0.618 | 0.098 | 0.0953 | 0.0947 | 0.863 | 0.169 | 0.0978 | 0.0964 | 0.424 | 0.086 | 0.0767 | 0.095 | 0.494 | 0.199 | 0.106 | 0.119 |
| HCC-44 | 0.973 | 0.443 | 0.176 | 0.147 | 0.741 | 0.133 | 0.118 | 0.112 | 0.677 | 0.095 | 0.133 | 0.118 |  |  |  |  | 1.07 | 0.556 | 0.361 | 0.272 |
